In patent US20060263502A1, “Absorbent material for use in humid conditions” (priority 2003, published 2006):

Test: Sensitivity to moisture of tetrazine compounds in polystyrene
Assay type: physicochemical
Details: 0.2M in polystyrene film about 130 μm; relative humidity 93% at 25° C.; at least 42 days; absorbance 500-550 nm
Experimental: The depletion of the tetrazine compound, as measured by % absorbance change, was used to indicate the sensitivity to moisture of the tetrazine compounds.
Compositions were prepared by blending the tetrazine compounds at a concentration of 0.2M into polystyrene. Each composition was then compression moulded to form a film having a thickness of about 130 μm. Each film sample was then mounted in a cell holder and the maximum absorbance between 500-550 nm measured. The cell holders containing the film samples were then placed on a mesh platform in a 550 mL squat glass jar fitted with a screw cap and polypropylene wad seal. To achieve a relative humidity of 93% at 25° C., a saturated solution of potassium nitrate covered the bottom of the jars (approx. 10 mm below the mesh platform). The jars were stored in a controlled-temperature room at 25° C.
At intervals of several days for at least 42 days, samples were in turn removed from their jars, and the maximum absorbance recorded between 500-550 nm, before immediately returning them to the controlled-temperature room in their sealed jars.

**Q.** For COC(=O)c1nnc(C(=O)OC)nn1 [DMTD, dimethyl-1,2,4,5-tetrazine-3,6-dicarboxylate, reference compound], which “sensitivity to moisture (depletion of the tetrazine compound, as measured by % absorbance change)” value is on record?
**A.** highly unstable to moisture
